Measurements as given in US20240226117A1, “TREATMENT OF CONGENITAL ADRENAL HYPOPLASIA” (ReveraGen BioPharma, Inc., priority 2021, published 2024).

Legend:
[1] = VBP15-002 Phase IIa multiple ascending dose trial: pharmacokinetics and safety; assay type: in vivo, human; conditions: DMD patients
Experimental: Vamorolone clinical studies have been conducted in adult male volunteers and boys with DMD, a disorder in which skeletal muscle is in a chronic inflammatory state. Two consecutive open-label dose-ranging studies in 48 DMD patients aged 4 to <7 years (corticosteroid-naïve) were conducted (Phase IIa, VBP15-002; Phase IIa, VBP15-003). Doses were tested over a 24-fold dose range (0.25, 0.75, 2.0, and 6.0 mg/kg/day), with 12 participants per group. The first multiple ascending dose (MAD) cohort trial-tested pharmacokinetics (PK) and safety for 2 weeks of drug dosing followed by a 2-week washout (VBP15-002). […] All DMD participants completed the MAD study and then continued on the same dose for a 24-week dose-finding (efficacy and safety) extension study (VBP15-003).
Three consecutive clinical trials of vamorolone treatment of DMD were conducted by CINRG (VBP15-002 [NCT02760264]: VBP15-003 [NCT02760277]: VBP15-LTE [NCT03038399]). A total of 48 participants (ages 4 to <7 years) were initially enrolled into VBP15-002, with trial participants completing month 12 of the 24-month VBP15-LTE study.
VBP15-002 (Phase IIa: two weeks on the drug, two weeks off drug) enrolled 48 corticosteroid-naïve participants with DMD, and all 48 participants completed the study and enrolled into VBP15-003 (Phase IIa extension: 24-week treatment). […]

[2] = system: ambulant boys with DMD; experiment: VBP15-004 bone turnover biomarkers; assay type: in vivo, human; conditions: for Osteocalcin, difference vs. prednisone / Procollagen 1 N-Terminal Propeptide (P1NP), difference vs. prednisone / Type I Collagen C-Telopeptides (CTX), difference vs. prednisone: Week 24, p < 0.001
[3] = system: ambulant boys with DMD; conditions: in vivo
[4] = molecular target: T1, mineralocorticoid receptor (Homo sapiens, UniProt P08235); conditions: background statement; cited from earlier work
T1 sequence (P08235 1-984): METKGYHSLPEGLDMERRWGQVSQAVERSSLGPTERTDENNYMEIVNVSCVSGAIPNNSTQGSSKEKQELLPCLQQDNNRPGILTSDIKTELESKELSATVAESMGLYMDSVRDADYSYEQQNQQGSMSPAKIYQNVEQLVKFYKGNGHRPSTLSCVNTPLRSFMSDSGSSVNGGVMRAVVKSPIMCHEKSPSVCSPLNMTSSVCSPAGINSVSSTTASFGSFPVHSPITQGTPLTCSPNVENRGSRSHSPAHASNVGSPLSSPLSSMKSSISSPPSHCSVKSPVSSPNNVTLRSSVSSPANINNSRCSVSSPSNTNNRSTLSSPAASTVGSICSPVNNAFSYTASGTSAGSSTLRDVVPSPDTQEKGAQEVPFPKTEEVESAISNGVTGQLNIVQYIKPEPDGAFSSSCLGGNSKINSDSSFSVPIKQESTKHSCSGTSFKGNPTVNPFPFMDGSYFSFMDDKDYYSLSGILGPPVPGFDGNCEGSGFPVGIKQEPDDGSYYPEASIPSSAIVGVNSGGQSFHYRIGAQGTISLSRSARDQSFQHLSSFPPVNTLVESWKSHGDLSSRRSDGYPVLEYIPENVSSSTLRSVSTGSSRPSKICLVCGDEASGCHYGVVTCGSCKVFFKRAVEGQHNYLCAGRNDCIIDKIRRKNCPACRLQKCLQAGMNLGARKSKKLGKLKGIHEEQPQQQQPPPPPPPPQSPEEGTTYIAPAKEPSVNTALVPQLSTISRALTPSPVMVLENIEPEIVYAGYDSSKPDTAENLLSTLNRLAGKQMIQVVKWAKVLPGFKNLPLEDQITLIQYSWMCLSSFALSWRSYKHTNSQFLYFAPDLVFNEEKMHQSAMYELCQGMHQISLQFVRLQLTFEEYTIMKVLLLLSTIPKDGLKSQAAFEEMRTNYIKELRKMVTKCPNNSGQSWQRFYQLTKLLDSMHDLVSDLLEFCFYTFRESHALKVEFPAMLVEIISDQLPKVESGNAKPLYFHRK

Osteocalcin, mean (SEM) change at Week 24 ([2]; Vamorolone 2.0 mg, N = 17): 8.3 (3.1) ng/ml
Procollagen 1 N-Terminal Propeptide (P1NP), mean (SEM) change at Week 24 ([2]; Vamorolone 2.0 mg, N = 17): 48 (27) ng/mL
Type I Collagen C-Telopeptides (CTX), mean (SEM) change at Week 24 ([2]; Vamorolone 2.0 mg, N = 17): 177 (52) pg/mL
Osteocalcin, difference vs. prednisone ([2]; Vamorolone 2.0 mg): 23.5 ng/mL
Procollagen 1 N-Terminal Propeptide (P1NP), difference vs. prednisone ([2]; Vamorolone 2.0 mg): 182 ng/mL
Type I Collagen C-Telopeptides (CTX), difference vs. prednisone ([2]; Vamorolone 2.0 mg): 477 pg/mL
Osteocalcin, difference vs. prednisone ([2]; Vamorolone 6.0 mg): 16.9 ng/mL
Procollagen 1 N-Terminal Propeptide (P1NP), difference vs. prednisone ([2]; Vamorolone 6.0 mg): 124 ng/mL
Type I Collagen C-Telopeptides (CTX), difference vs. prednisone ([2]; Vamorolone 6.0 mg): 390 pg/mL
clinically relevant psychiatric events, subjects [3]: no vamorolone-treated subjects
moderate/severe behavior problems, subjects ([3]; male, human, 24 weeks): 1.7%
Compound: C[C@@H]1C[C@H]2[C@@H]3CCC4=CC(=O)C=C[C@]4(C)C3=CC[C@]2(C)[C@@]1(O)C(=O)CO [Vamorolone, 17α,21-dihydroxy-16α-methylpregna-1,4,9(11)-triene-3,20-dione]
dose-limiting toxicities ([1]; 0.25-6.0 mg/kg/day, 2 weeks of dosing): no dose-limiting toxicities
drug accumulation ([1]; day 1 vs day 14): no drug accumulation
activity at the mineralocorticoid receptor [4]: potent antagonist
